From PMC12090182, “Repurposing of the RIPK1-Selective Benzo[1,4]oxazepin-4-one Scaffold for the Development of a Type III LIMK1/2 Inhibitor” (ACS Chemical Biology, 2025)

System: MRC-9 cells
Assay: Multiplex high-content viability assessment
Format: cell-based
Settings: for Cell count normalized to cells treated with DMSO control / Cell count per well / Population Fragmented Nuclei (%) / Population Healthy Nuclei (%) / Population Pyknosed Nuclei (%) / Population apoptotic cell (%) / Population cell that influence microtubule strucutre (%) / Population with increased mitochondrial mass (%) / Population with membrane disruption (%): human fibroblast
Procedure: To assess the influence on cell health, a high-content screening in living cells called the multiplex high-content assay, as described previously by Tjaden et al., was performed.[38] In brief, HEK293T (ATCC CRL-1573) and U2OS (ATCCHTB-96) were cultured in DMEM plus L-glutamine (high glucose) supplemented by 10% FBS (Gibco) and penicillin/streptomycin (Gibco). MRC-9 fibroblasts ([…]) were cultured in EMEM plus L-glutamine supplemented by 10% FBS (Gibco) and penicillin/streptomycin (Gibco). Cells were seeded at a density of 1250 cells per well in a 384-well plate in a culture medium (cell culture microplate, PS, f-bottom, μClear, 781091, Greiner), with a volume of 50 μL per well. All outer wells were filled with 100 μL of PBS buffer (Gibco). […] The cell shape and fluorescence were measured before treatment and 12, 24, and 48 h after compound treatment using the CQ1 high-content confocal microscope (Yokogawa, Musashino, Japan). […] The compounds were tested at 1 and 10 μM, respectively. Acquired images of the cells were processed using Yokogawa CellPathfinder software (v3.04.02.02). […] Results were normalized to cells exposed to 0.1% DMSO. All compounds were tested in biological duplicates, and SEM (standard error of mean) was calculated of biological duplicates.

## CN1C(=O)[C@@H](N2CCc3c(nn(Cc4ccccc4)c3C(N)=O)C2=O)COc2cc(Cl)ccc21 [Compound 10, (S)-2-benzyl-6-(8-chloro-5-methyl-4-oxo-2,3,4,5-tetrahydrobenzo[b][1,4]oxazepin-3-yl)-7-oxo-4,5,6,7-tetrahydro-2H-pyrazolo[3,4-c]pyridine-3-carboxamide]
1 µM, 0 h, replicate 1
  Cell count normalized to cells treated with DMSO control: 0.9542
  Cell count per well: 143
  Population Fragmented Nuclei (%): 19.86%
  Population Healthy Nuclei (%): 56.74%
  Population Pyknosed Nuclei (%): 23.40%
  Population apoptotic cell (%): 42.42%
  Population cell that influence microtubule strucutre (%): 27.50%
  Population with increased mitochondrial mass (%): 11.25%
  Population with membrane disruption (%): 1.25%
1 µM, 0 h, replicate 2
  Cell count normalized to cells treated with DMSO control: 1.071
  Cell count per well: 191
  Population Fragmented Nuclei (%): 17.68%
  Population Healthy Nuclei (%): 56.35%
  Population Pyknosed Nuclei (%): 25.97%
  Population apoptotic cell (%): 19.15%
  Population cell that influence microtubule strucutre (%): 32.35%
  Population with increased mitochondrial mass (%): 4.90%
  Population with membrane disruption (%): 4.90%
1 µM, 12 h, replicate 1
  Cell count normalized to cells treated with DMSO control: 0.9165
  Cell count per well: 138
  Population Fragmented Nuclei (%): 13.43%
  Population Healthy Nuclei (%): 56.72%
  Population Pyknosed Nuclei (%): 29.85%
  Population apoptotic cell (%): 55.00%
  Population cell that influence microtubule strucutre (%): 31.58%
  Population with increased mitochondrial mass (%): 3.95%
  Population with membrane disruption (%): 0.00%
1 µM, 12 h, replicate 2
  Cell count normalized to cells treated with DMSO control: 1.033
  Cell count per well: 172
  Population Fragmented Nuclei (%): 18.52%
  Population Healthy Nuclei (%): 51.23%
  Population Pyknosed Nuclei (%): 30.25%
  Population apoptotic cell (%): 36.73%
  Population cell that influence microtubule strucutre (%): 48.19%
  Population with increased mitochondrial mass (%): 3.61%
  Population with membrane disruption (%): 9.64%
1 µM, 24 h, replicate 1
  Cell count normalized to cells treated with DMSO control: 0.9086
  Cell count per well: 137
  Population Fragmented Nuclei (%): 12.03%
  Population Healthy Nuclei (%): 64.66%
  Population Pyknosed Nuclei (%): 23.31%
  Population apoptotic cell (%): 64.52%
  Population cell that influence microtubule strucutre (%): 32.56%
  Population with increased mitochondrial mass (%): 8.14%
  Population with membrane disruption (%): 2.33%
1 µM, 24 h, replicate 2
  Cell count normalized to cells treated with DMSO control: 1.049
  Cell count per well: 173
  Population Fragmented Nuclei (%): 26.25%
  Population Healthy Nuclei (%): 51.25%
  Population Pyknosed Nuclei (%): 22.50%
  Population apoptotic cell (%): 47.22%
  Population cell that influence microtubule strucutre (%): 46.34%
  Population with increased mitochondrial mass (%): 3.66%
  Population with membrane disruption (%): 8.54%
1 µM, 48 h, replicate 1
  Cell count normalized to cells treated with DMSO control: 0.9623
  Cell count per well: 146
  Population Fragmented Nuclei (%): 16.91%
  Population Healthy Nuclei (%): 63.97%
  Population Pyknosed Nuclei (%): 19.12%
  Population apoptotic cell (%): 76.92%
  Population cell that influence microtubule strucutre (%): 25.29%
  Population with increased mitochondrial mass (%): 4.60%
  Population with membrane disruption (%): 1.15%
1 µM, 48 h, replicate 2
  Cell count normalized to cells treated with DMSO control: 1.056
  Cell count per well: 172
  Population Fragmented Nuclei (%): 23.95%
  Population Healthy Nuclei (%): 59.28%
  Population Pyknosed Nuclei (%): 16.77%
  Population apoptotic cell (%): 75.00%
  Population cell that influence microtubule strucutre (%): 54.55%
  Population with increased mitochondrial mass (%): 5.05%
  Population with membrane disruption (%): 7.07%
1 μM, MRC-9
  cytotoxicity: no cytotoxicity
10 µM, 0 h, replicate 1
  Cell count normalized to cells treated with DMSO control: 1.081
  Cell count per well: 162
  Population Fragmented Nuclei (%): 15.72%
  Population Healthy Nuclei (%): 65.41%
  Population Pyknosed Nuclei (%): 18.87%
  Population apoptotic cell (%): 33.33%
  Population cell that influence microtubule strucutre (%): 22.12%
  Population with increased mitochondrial mass (%): 9.62%
  Population with membrane disruption (%): 0.96%
10 µM, 0 h, replicate 2
  Cell count normalized to cells treated with DMSO control: 0.8971
  Cell count per well: 160
  Population Fragmented Nuclei (%): 22.07%
  Population Healthy Nuclei (%): 49.66%
  Population Pyknosed Nuclei (%): 28.28%
  Population apoptotic cell (%): 34.15%
  Population cell that influence microtubule strucutre (%): 44.44%
  Population with increased mitochondrial mass (%): 9.72%
  Population with membrane disruption (%): 5.56%
10 µM, 12 h, replicate 1
  Cell count normalized to cells treated with DMSO control: 1.162
  Cell count per well: 175
  Population Fragmented Nuclei (%): 18.93%
  Population Healthy Nuclei (%): 60.36%
  Population Pyknosed Nuclei (%): 20.71%
  Population apoptotic cell (%): 48.57%
  Population cell that influence microtubule strucutre (%): 53.92%
  Population with increased mitochondrial mass (%): 8.82%
  Population with membrane disruption (%): 1.96%
10 µM, 12 h, replicate 2
  Cell count normalized to cells treated with DMSO control: 0.8225
  Cell count per well: 137
  Population Fragmented Nuclei (%): 27.87%
  Population Healthy Nuclei (%): 49.18%
  Population Pyknosed Nuclei (%): 22.95%
  Population apoptotic cell (%): 25.00%
  Population cell that influence microtubule strucutre (%): 60.00%
  Population with increased mitochondrial mass (%): 5.00%
  Population with membrane disruption (%): 3.33%
10 µM, 24 h, replicate 1
  Cell count normalized to cells treated with DMSO control: 1.1009
  Cell count per well: 166
  Population Fragmented Nuclei (%): 25.32%
  Population Healthy Nuclei (%): 55.06%
  Population Pyknosed Nuclei (%): 19.62%
  Population apoptotic cell (%): 54.84%
  Population cell that influence microtubule strucutre (%): 45.98%
  Population with increased mitochondrial mass (%): 10.34%
  Population with membrane disruption (%): 1.15%
10 µM, 24 h, replicate 2
  Cell count normalized to cells treated with DMSO control: 0.8977
  Cell count per well: 148
  Population Fragmented Nuclei (%): 34.56%
  Population Healthy Nuclei (%): 47.06%
  Population Pyknosed Nuclei (%): 18.38%
  Population apoptotic cell (%): 40.00%
  Population cell that influence microtubule strucutre (%): 65.63%
  Population with increased mitochondrial mass (%): 9.38%
  Population with membrane disruption (%): 1.56%
10 µM, 48 h, replicate 1
  Cell count normalized to cells treated with DMSO control: 1.1403
  Cell count per well: 173
  Population Fragmented Nuclei (%): 22.56%
  Population Healthy Nuclei (%): 61.59%
  Population Pyknosed Nuclei (%): 15.85%
  Population apoptotic cell (%): 84.62%
  Population cell that influence microtubule strucutre (%): 40.59%
  Population with increased mitochondrial mass (%): 5.94%
  Population with membrane disruption (%): 0.00%
10 µM, 48 h, replicate 2
  Cell count normalized to cells treated with DMSO control: 0.9149
  Cell count per well: 149
  Population Fragmented Nuclei (%): 33.82%
  Population Healthy Nuclei (%): 56.62%
  Population Pyknosed Nuclei (%): 9.56%
  Population apoptotic cell (%): 46.15%
  Population cell that influence microtubule strucutre (%): 61.04%
  Population with increased mitochondrial mass (%): 6.49%
  Population with membrane disruption (%): 2.60%
MRC-9, 1 μM (Figure 6)
  impact on tubulin, mitochondrial mass, and cellular permeability in healthy cells: comparable to that of the 0.1% DMSO control
